According to PubChem BioAssay AID504562 (Southern Research Specialized Biocontainment Screening …, 2011):
The source made the active and inactive calls. How the calls were made is not given here. Residues, ends and D or L forms follow the SMILES beside them. *: point of attachment. Cbz = O=C(OCc1ccccc1)*

System: not listed separately
Test: mammalian cell cytotoxicity, dose response, cytotoxicity control for M. tuberculosis growth inhibitor project, purified and synthesized compounds, set 2 (AID 504562)
Settings: mammalian cell viability, cytotoxicity counter-screen; at 100 µM (top of the series)

SMILES	viability
COC(=O)CCc1nc2c(C#N)c(-c3ccc(Cl)cc3)ccn2n1	99.6% (inactive)
CCOC1OC(=O)C(Cl)=C1Nc1ccccc1C (stereo unspecified)	91.1% (inactive)
Cc1nc(SCC(=O)NC2CCCCC2)[nH]c(=O)c1C	91.7% (inactive)
COC(=O)C(C)Oc1ccc(-c2nccc(-c3ccccn3)n2)cc1 (stereo unspecified)	100% (inactive)
COC(=O)C1CC(=O)N(c2ccc(OCc3ccccc3Cl)cc2)C1 (stereo unspecified)	100% (inactive)
O=C1C(Br)=Cc2cccc3cccc1c23	89.2% (inactive)
CC[N+](C)(CC)CCCCOc1ccc2c(c1)C(=O)c1cc(OCCCC[N+](C)(CC)CC)ccc1-2	101% (inactive)
CC(=NCc1ccc2c(c1)OCO2)C1=C(O)c2ccccc2C1=O	88.7% (inactive)
Cc1ccc2ccc3ccc(C)nc3c2n1	68.3% (inactive)
CCOC(=O)COc1ccc(/C=C2\NC(=S)N(CC)C2=O)cc1	91.2% (inactive)
COc1cc(NC(=O)C/C(C)=N/NC(=O)c2ccccn2)c(OC)cc1Cl	103% (inactive)
CC1CCN(C(=O)C2CCN(c3nnc(-n4cccc4)s3)CC2)CC1	92.8% (inactive)
CCOC(=O)COn1c2c(c3c4no[n+]([O-])c4ccc31)CCCC2	87.9% (inactive)
Cc1ccc(NC(=O)C2C3/C=C\CCCCC32)cc1C (stereo unspecified)	97% (inactive)
O=C(/C=C\c1cccs1)N1CCN(Cc2ccc3c(c2)OCO3)CC1	91.2% (inactive)
CCc1ccc(/C=C2/C(=O)N(C)C(=S)N2CC(=O)OC)s1	101% (inactive)
COC(=O)c1ccc(CNc2c(N3CCCC3)c(=O)c2=O)cc1	97.3% (inactive)
O=C(CSc1nc2ccccc2c(=O)[nH]1)NC1CCCCC1	97.5% (inactive)
O=C(CSc1nc2ccccc2c(=O)[nH]1)NCc1ccc(Cl)cc1	89.5% (inactive)
Nc1c(C(=O)NC2CCCCC2)nsc1C(=O)OCC(=O)NC1CCCCC1	93.5% (inactive)

System: mammalian cell viability, cytotoxicity counter-screen
Test: as above
Settings: not given

SMILES	CC50
CCC(C)Nc1ccc(NC(C)CC)cc1 (stereo unspecified)	16.5 µM
CNc1nc(SCc2ccccc2Cl)nc2c1CCCC2	46.1 µM
Cc1cccc(/C=C/C(=O)c2ccc([N+](=O)[O-])o2)c1	53.1 µM
COC(=O)c1cc(=O)n(-c2ccc(F)cc2)c(=Nc2ccc(F)cc2)s1	20.8 µM
CCOC(=O)c1ccc(NC(=O)Cn2ncc(Cl)c(Cl)c2=O)cc1	7.7 µM
CC(C)NC(=O)c1sc(=S)n2c1[nH]c(=O)c1ccc(C(=O)NCCc3ccc(Cl)cc3)cc12	68.8 µM
Cc1ccc2c(c1)c(C1=c3ccccc3=NC1=O)c(O)n2C	14.3 µM
COC(=O)C(Nc1nc(SCC(=O)NC2CCCCC2)nc2ccccc12)c1ccccc1 (stereo unspecified)	88 µM
Cc1ccc(C(=O)N/N=C(/CC(=O)c2cccs2)C(F)(F)F)cc1	31.7 µM
CCOC(=O)CNC(=O)[C@H](Cc1ccccc1)NC(=O)OCc1ccccc1 (Cbz-Phe-Gly-OEt)	68.9 µM
S=c1nc[nH]c2nc[nH]c12	38.1 µM
